The values that follow come from patent publication US11826402B2, “Combination therapy involving antibodies against claudin 18.2 for treatment of metastatic pancreatic adenocarcinoma” (Astellas Pharma Inc., priority 2013, dated 2023).

≈ marks a conversion by molar mass, not a printed value.

One assay relates to BxPC3-LVT. Briefly: Inhibition of proliferation (XTT viability assay, 4 days). Format: cell-based, human. How it is done: (§1) To analyze dose-response curves of each chemotherapeutic agent, a proliferation assay was performed.
(§2) Cells were seeded in 96 well plates and after 4-6 hours gemcitabine or oxaliplatin was added in following concentrations: 1000, 500, 250, 100 and 20 ng/ml. The proliferation assay was incubated for 4 days at 37° C. and 5% CO2. 50 μl XTT complete reagent (50 parts XTT+1 part coupl. reagent mixed) was added and incubated at 37° C. Measurement of absorbance (cells plus supernatant) was done with the Tecan Safire after 3 h and 4 h. Inhibition of proliferation was calculated compared to medium values set as 100%. EC50 values for gemcitabine and oxaliplatin were calculated in the GraphPad Prism program.
(In general: Formazan colour is commonly taken as a measure of viable cells.)

Assay [1] deals with DANG. The description is as above. Format: cell-based, human. As to the method: as §1, §2
The subject of the next assay is MiaPaCa-2-LVT. The assay is described as above. Format: cell-based, human. How it is done:
as §1, §2

The test system of assay [2] is DANG. Briefly: Cell cycle analysis. Format: cell-based, human. The settings on record: 2 days. As to the method:
The area of each bar is divided to indicate the percentage of cells in G0/G1, S and G2 phase.
Cells were plated in six-well plates, and 5-6 hours later chemotherapeutic agents were added for either 24 h 48 h or 3 days. Cells floating in the medium were combined with the adherent cell layer, which was trypsinized. Cells were washed. Either cell cycle analysis was started directly or cell surface staining was done before as described above. Cells are resuspended in 1 ml PBS and added to 3 ml 4% PFA. After 15 min fixation of cells at room temperature cells are pelleted and washed. For RNAse treatment cells were resuspended in 200 μl RNAse (10000 U/ml) plus 0.05% Triton X-100 and incubated for 30 min at 37° C. 1 ml PBS was added and samples were centrifuged and resuspended in 200 μl PBS/PJ 50 μg/ml. At least 30 min later samples were ready to be analyzed by flow cytometry. Cell cycle phase distribution was determined using FlowJo software to analyze DNA content histograms.

Another assay concerns NUGC-4. Briefly: IMAB362-induced ADCC on gastric cancer cells, also with ZA/IL-2 cultivated PBMCs. Format: cell-based, human. As to the method: Specific killing was determined in luciferase assays.
The next assay has as its system BxPC3-CLDN18. Briefly: IMAB362 mediated apoptosis of gemcitabine treated pancreas tumor cells. The format is cell-based, human. The settings on record: BxPC3-CLDN18, medium or 100 ng/ml gemcitabine, after 48 hours. As to the method:
BxPC3-CLDN18 were cultivated in medium or medium+100 ng/ml gemcitabine. Apoptotic cell fraction of […] were shifted. Similar shifts were obtained by incubation of tumor cells with Camptotecin.
Following the indicated treatments, apoptosis was measured by annexin V binding (detection kit I) or by a DNA fragmentation assay (Apo-Direct) as recommended by the manufacturer (PharMingen, San Diego, Calif.). Briefly, cells floating in the supernatant were combined with the adherent fraction, which was trypsinized and then washed. An aliquot of 5 E+05 cells was incubated with annexin V-APC and PI for 15 min at room temperature in the dark. Cells were immediately analyzed by flow cytometry. Viable cells exclude both annexin V-APC and PI. Early apoptotic cells are annexin V-APC-positive and PI-negative, whereas cells that are no longer viable due to apoptotic or necrotic cell death are positively stained by both annexin V and PI. Percentage of stained cells in each quadrant was quantified using FlowJo software (BD Biosciences, Franklin Lakes, N.J.).
The apoptotic assay based on DNA fragmentation was performed as follows. Treated cells (adherent and floating) were fixed in 70% icecold EtOH overnight. […] Cells were rinsed, incubated in RNase A/propidium iodide in the dark for 30 min at room temperature to stain total DNA, then analyzed by flowvcytometry. […]

The test system of a further assay is Suit2-LVT cells. Nature of the assay: FACS binding to Suit2-LVT cells. The arrangement: species or system human. The settings on record: 200 μg/ml antibody. As to the method: Cells were harvested with PBS/5 mM EDTA or Trypsin/EDTA from an exponentially growing culture at 70-85% confluency. Cells were counted, centrifuged for 5 min (468 g) and the pellet was resuspended in FACS buffer (2% FCS, 0.1% sodium azide in PBS) adjusting the concentration to 2×10^6/ml. 100 μl cells were plated in round bottom 96-well plates and again centrifuged (5 min, 468 g). […] Then, 200 μl FACS buffer was added to each well and plates were centrifuged (5 min, 468 g). The supernatant was removed and washing was repeated. Secondary goat anti-human antibodies (FC specific, F(ab′)2 conjugated with APC (Dianova)) were diluted (1:100) in FACS buffer and 30 μl was added to each well. Plates were incubated for 30 min at 4° C. After incubation plates were washed again two times with 200 μl FACS buffer and the pellet was finally resuspended in 100 μl FACS buffer for measurement FACS Array Bioanalyzer (BD) according to GA_018_BD FACS Array bioanalyzer.
In addition to tissue processing, it is possible that the result represents unexpected inhibiting effects of the isotype control antibody targeting CLDN6. To investigate this option, the Suit2-LVT cells were analyzed for CLDN6 expression and IMAB027 binding in FACS.
In general terms: In flow cytometry, cells or beads pass a laser one at a time.

The next assay relates to HPAFII. Briefly: IMAB362-mediated ADCC assay. The settings on record: at least 2 donors. The format is cell-based, human.
The next assay concerns Panc01. Nature of the assay: IMAB362-mediated ADCC assay. Format: cell-based, human. The settings on record: at least 2 donors.
A further assay concerns Panc03.27. Briefly: IMAB362-mediated ADCC assay. The format is cell-based, human. The settings on record: at least 2 donors.
Another assay deals with MiaPaCa2. Nature of the assay: IMAB362-mediated CDC assay (healthy human serum pool). The format is cell-based. How it is done: (§3) In addition, the LVT cell lines and the parental strains were tested in CDC.
(§4) CHO-K1 cells stably transfected with CLDN18.2 (p740) and luciferase were used as assay positive controls in each assay (FIG. 23A). […] This is most likely due to the fact that neoplastic cells over-express one or more membrane bound complement inhibitory proteins (e.g. CD46, CD55 and CD59) (Geis et al., Curr Cancer Drug Targets, 2010 10:922-931). However, if expression of these inhibitory proteins on tumor cells affect clinical outcome of an antibody therapy is still contradictory (Dzietczenia et al. Med. Oncol. 2010, 27:743-6; Weng and Levy at al., Blood 2001 98:1352-7). In addition to the endogenous cell lines, all the LVT cell lines were tested in CDC assays.

Another assay relates to Patu8902. The description is as above. Format: cell-based. As to the method: as §3, §4
The mark [3] stands for this setting: Homo sapiens, 96 h, 4 days exposure.

On to `Nc1ccn([C@@H]2O[C@H](CO)[C@@H](O)C2(F)F)c(=O)n1` [gemcitabine, 4-amino-1-(2-deoxy-2,2-difluoro-β-D-erythro-pentofuranosyl)pyrimidin-2(1H)-one], for which the “sensitivity of cells to the agent” value in the assay with BxPC3-LVT was “very sensitive”; in the assay with DANG [1], “very sensitive”; with MiaPaCa-2-LVT, “less sensitive”. The figures for the IC50 in the assay on BxPC3-LVT (setting [3]), in the assay on DANG [1] (setting [3]) and with MiaPaCa-2-LVT (setting [3]) were around 2 ng/mL (≈ 7.6 nM), around 1 ng/mL (≈ 3.8 nM) and 50 ng/mL (≈ 190 nM), respectively. The cell cycle effect entry with DANG [2] was “cell cycle arrest of cells in S-Phase”.
In the case of “IMAB362: chimeric IgG1 antibody directed against CLDN18.2, developed by Ganymed Pharmaceuticals AG”, the “ADCC activity with ZA/IL-2 cultivated PBMCs” value with NUGC-4 (PBMCs cultivated 14 days with ZA/IL-2) was “Strong IMAB362-dependent ADCC activity”. The “maximum lysis rates (ADCC)” value with NUGC-4 (up to 200 μg/ml, 24 hours, human PBMC E:T 40:1) is 80-100%. Moreover, in the assay on BxPC3-CLDN18, the induction of apoptosis result was “Apoptosis induced by cross-linking”. Besides, in the assay on Suit2-LVT cells, the “binding to cells in FACS” value is “strong binding”. The “ADCC EC50” value with HPAFII, in the assay with Panc01 and in the assay with Panc03.27 was “n.m” throughout. Besides, the “ADCC Max. lysis” value in the assay with HPAFII is recorded as “n.m”; in the assay with Panc01, 0-4.5%; in the assay with Panc03.27 it was “n.m”. The “CDC EC50” value in the assay with MiaPaCa2 and in the assay on Patu8902 was “n.m” in each case. Moreover, the “CDC Max. lysis” value in the assay on MiaPaCa2 and with Patu8902 was “n.m” throughout.
